Laboratory results taken from patent publication US20130203591A1, “PESTICIDAL MIXTURES INCLUDING ISOXAZOLINE DERIVATIVES” (SYNGENTA CROP PROTECTION LLC, priority 2010, published 2013).

What was measured:
Format in all cases: cell-based
[1] = test system: Mycosphaerella arachidis (syn. Cercospora arachidicola); assay: Mycosphaerella arachidis (brown leaf spot of groundnut) growth inhibition in nutrient broth, microtiter plate
Protocol: Mycosphaerella arachidis (syn. Cercospora arachidicola), Brown Leaf Spot of Groundnut (Peanut):
(§1) Conidia of the fungus from cryogenic storage were directly mixed into nutrient broth (potato dextrose broth). After placing a (DMSO) solution of the test compounds into a microtiter plate (96-well format) the nutrient broth containing the fungal spores was added. The test plates were incubated at 24° C. and the inhibition of growth was determined photometrically after approximately 5-6 days at 620 nm.

Septoria tritici = Septoria tritici (leaf blotch) growth inhibition in nutrient broth, microtiter plate
Protocol: Septoria tritici (Leaf Blotch):
as §1, with “72 hours.” for “approximately 5-6 days at 620 nm.”

Botrvtis cinerea = assay: Botrytis cinerea (gray mould) growth inhibition in nutrient broth, microtiter plate
Protocol: Botrvtis cinerea (Gray Mould):
as §1, with “72 hours.” for “approximately 5-6 days at 620 nm.”

Fusarium culmorum = Fusarium culmorum (root rot) growth inhibition in nutrient broth, microtiter plate; details: for AVERAGE DEAD IN % COMPOUND I-A2: COMPOUND I-A2 alone; for AVERAGE DEAD IN % COMPOUND I-A2 / AVERAGE DEAD IN % Epoxiconazole: 48 hrs, 24° C.; for AVERAGE DEAD IN % Epoxiconazole: Epoxiconazole alone
Protocol: Fusarium culmorum (Root Rot):
as §1, with “48 hrs.” for “approximately 5-6 days at 620 nm.”

[2] = test system: Glomerella lagenarium (syn. Colletotrichum lagenarium); assay: Glomerella lagenarium (anthracnose of cucurbits) growth inhibition in nutrient broth, microtiter plate
Protocol: Glomerella lagenarium (syn. Colletotrichum lagenarium), Anthracnose of Cucurbits:
as §1, with “72 hours” for “approximately 5-6 days”

[3] = Fluxapyroxad alone 0.125 ppm AI
[4] = Azoxystrobin alone 0.015625 ppm AI
[5] = Azoxystrobin alone 0.03125 ppm AI
[6] = Azoxystrobin alone 0.0625 ppm AI
[7] = Epoxiconazole alone 0.0078125 ppm AI
[8] = Epoxiconazole alone 0.015625 ppm AI
[9] = Epoxiconazole alone 0.03125 ppm AI
[10] = Epoxiconazole alone 0.25 ppm AI
[11] = Pyraclostrobin alone 0.00390625 ppm AI
[12] = Pyraclostrobin alone 0.5 ppm AI

SMILES: Cn1cc(C(=O)Nc2ccccc2-c2cc(F)c(F)c(F)c2)c(C(F)F)n1 [Fluxapyroxad]
- AVERAGE DEAD IN % ([1]; Fluxapyroxad alone 0.015625 ppm AI): 0%
- AVERAGE DEAD IN % ([1]; Fluxapyroxad alone 0.03125 ppm AI): 20%
- AVERAGE DEAD IN % ([1]; Fluxapyroxad alone 0.0625 ppm AI): 50%
- AVERAGE DEAD IN % [1, 3]: 90%
- AVERAGE DEAD IN % ([1]; Fluxapyroxad alone 0.25 ppm AI): 100%
- AVERAGE DEAD IN % (Septoria tritici; [3]): 20%
- AVERAGE DEAD IN % (Septoria tritici; Fluxapyroxad alone 0.25 ppm AI): 70%
- AVERAGE DEAD IN % (Septoria tritici; Fluxapyroxad alone 0.5 ppm AI): 100%
- AVERAGE DEAD IN % (Septoria tritici; Fluxapyroxad alone 1 ppm AI): 100%

SMILES: O=C(Nc1ccccc1-c1ccc(Cl)cc1)c1cccnc1Cl [Boscalid]
- AVERAGE DEAD IN % ([1]; Boscalid alone 0.125 ppm AI): 70%
- AVERAGE DEAD IN % ([1]; Boscalid alone 0.25 ppm AI): 100%
- AVERAGE DEAD IN % ([1]; Boscalid alone 0.5 ppm AI): 100%
- AVERAGE DEAD IN % (Septoria tritici; Boscalid alone 0.25 ppm AI): 20%
- AVERAGE DEAD IN % (Septoria tritici; Boscalid alone 0.5 ppm AI): 50%
- AVERAGE DEAD IN % (Septoria tritici; Boscalid alone 1 ppm AI): 90%
- AVERAGE DEAD IN % (Septoria tritici; Boscalid alone 2 ppm AI): 100%
- AVERAGE DEAD IN % (Botrvtis cinerea; Boscalid alone 0.0625 ppm AI): 20%
- AVERAGE DEAD IN % (Botrvtis cinerea; Boscalid alone 0.125 ppm AI): 20%
- AVERAGE DEAD IN % (Botrvtis cinerea; Boscalid alone 0.25 ppm AI): 20%
- AVERAGE DEAD IN % (Botrvtis cinerea; Boscalid alone 0.5 ppm AI): 50%
- AVERAGE DEAD IN % (Botrvtis cinerea; Boscalid alone 1 ppm AI): 70%
- AVERAGE DEAD IN % (Botrvtis cinerea; Boscalid alone 2 ppm AI): 90%

SMILES: Cc1cc(C2=NOC(c3cc(Cl)cc(Cl)c3)(C(F)(F)F)C2)ccc1C(=O)NCC(=O)NCC(F)(F)F (stereo not drawn) [I-A2]
- AVERAGE DEAD IN % ([1]; I-A2 alone 0.1171875 ppm AI): 0%
- AVERAGE DEAD IN % ([1]; I-A2 alone 0.234375 ppm AI): 0%
- AVERAGE DEAD IN % ([1]; I-A2 alone 0.46875 ppm AI): 0%
- AVERAGE DEAD IN % ([1]; I-A2 alone 0.9375 ppm AI): 0%
- AVERAGE DEAD IN % ([1]; I-A2 alone 1.875 ppm AI): 0%
- AVERAGE DEAD IN % ([1]; I-A2 alone 3.75 ppm AI): 0%
- AVERAGE DEAD IN % ([1]; I-A2 alone 7.5 ppm AI): 0%
- AVERAGE DEAD IN % ([1]; I-A2 alone 15 ppm AI): 0%
- AVERAGE DEAD IN % (Septoria tritici; I-A2 alone 0.1171875 ppm AI): 0%
- AVERAGE DEAD IN % (Septoria tritici; I-A2 alone 0.234375 ppm AI): 0%
- AVERAGE DEAD IN % (Septoria tritici; I-A2 alone 0.46875 ppm AI): 0%
- AVERAGE DEAD IN % (Septoria tritici; I-A2 alone 0.9375 ppm AI): 0%
- AVERAGE DEAD IN % (Septoria tritici; I-A2 alone 1.875 ppm AI): 0%
- AVERAGE DEAD IN % (Septoria tritici; I-A2 alone 3.75 ppm AI): 0%
- AVERAGE DEAD IN % (Septoria tritici; I-A2 alone 7.5 ppm AI): 0%
- AVERAGE DEAD IN % (Septoria tritici; I-A2 alone 15 ppm AI): 0%
- AVERAGE DEAD IN % (Septoria tritici; I-A2 alone 30 ppm AI): 0%
- AVERAGE DEAD IN % (Septoria tritici; I-A2 alone 60 ppm AI): 0%
- AVERAGE DEAD IN % (Botrvtis cinerea; I-A2 alone 0.46875 ppm AI): 0%
- AVERAGE DEAD IN % (Botrvtis cinerea; I-A2 alone 0.9375 ppm AI): 0%
- AVERAGE DEAD IN % (Botrvtis cinerea; I-A2 alone 1.875 ppm AI): 0%
- AVERAGE DEAD IN % (Botrvtis cinerea; I-A2 alone 3.75 ppm AI): 0%
- AVERAGE DEAD IN % (Botrvtis cinerea; I-A2 alone 7.5 ppm AI): 0%
- AVERAGE DEAD IN % (Botrvtis cinerea; I-A2 alone 15 ppm AI): 0%
- AVERAGE DEAD IN % (Botrvtis cinerea; I-A2 alone 30 ppm AI): 0%
- AVERAGE DEAD IN % (Botrvtis cinerea; I-A2 alone 60 ppm AI): 0%
- AVERAGE DEAD IN % COMPOUND I-A2 (Fusarium culmorum; 0.9375 PPM AI): 0%
- AVERAGE DEAD IN % COMPOUND I-A2 (Fusarium culmorum; 1.875 PPM AI): 0%
- AVERAGE DEAD IN % COMPOUND I-A2 (Fusarium culmorum; 3.75 PPM AI): 0%
- AVERAGE DEAD IN % COMPOUND I-A2 (Fusarium culmorum; 7.5 PPM AI): 0%
- AVERAGE DEAD IN % COMPOUND I-A2 (Fusarium culmorum; 15 PPM AI): 0%
- AVERAGE DEAD IN % COMPOUND I-A2 (Fusarium culmorum; 30 PPM AI): 0%
- AVERAGE DEAD IN % COMPOUND I-A2 (Fusarium culmorum; 60 PPM AI): 0%
- AVERAGE DEAD IN % (Fusarium culmorum; I-A2 alone 3.75 ppm AI): 0%
- AVERAGE DEAD IN % (Fusarium culmorum; I-A2 alone 7.5 ppm AI): 0%
- AVERAGE DEAD IN % (Fusarium culmorum; I-A2 alone 15 ppm AI): 0%
- AVERAGE DEAD IN % (Fusarium culmorum; I-A2 alone 30 ppm AI): 0%
- AVERAGE DEAD IN % (Fusarium culmorum; I-A2 alone 60 ppm AI): 0%
- AVERAGE DEAD IN % ([2]; I-A2 alone 0.1171875 ppm AI): 0%
- AVERAGE DEAD IN % ([2]; I-A2 alone 0.234375 ppm AI): 0%
- AVERAGE DEAD IN % ([2]; I-A2 alone 0.46875 ppm AI): 0%
- AVERAGE DEAD IN % ([2]; I-A2 alone 0.9375 ppm AI): 0%
- AVERAGE DEAD IN % ([2]; I-A2 alone 1.875 ppm AI): 0%
- AVERAGE DEAD IN % ([2]; I-A2 alone 3.75 ppm AI): 0%
- AVERAGE DEAD IN % ([2]; I-A2 alone 7.5 ppm AI): 0%
- AVERAGE DEAD IN % ([2]; I-A2 alone 15 ppm AI): 0%
- AVERAGE DEAD IN % ([2]; I-A2 alone 30 ppm AI): 0%
- AVERAGE DEAD IN % ([2]; I-A2 alone 60 ppm AI): 0%

SMILES: CO/C=C(/C(=O)OC)c1ccccc1Oc1cc(Oc2ccccc2C#N)ncn1 [Azoxystrobin]
- AVERAGE DEAD IN % ([1]; Azoxystrobin alone 0.0078125 ppm AI): 0%
- AVERAGE DEAD IN % [1, 4]: 20%
- AVERAGE DEAD IN % [1, 5]: 70%
- AVERAGE DEAD IN % [1, 6]: 90%
- AVERAGE DEAD IN % (Septoria tritici; [5]): 20%
- AVERAGE DEAD IN % (Septoria tritici; [6]): 70%
- AVERAGE DEAD IN % [2, 4]: 20%
- AVERAGE DEAD IN % [2, 5]: 50%
- AVERAGE DEAD IN % [2, 6]: 70%
- AVERAGE DEAD IN % ([2]; Azoxystrobin alone 0.125 ppm AI): 90%

SMILES: Fc1ccc([C@]2(Cn3cncn3)O[C@H]2c2ccccc2Cl)cc1 (racemic) [Epoxiconazole]
- AVERAGE DEAD IN % [1, 7]: 0%
- AVERAGE DEAD IN % [1, 8]: 0%
- AVERAGE DEAD IN % [1, 9]: 20%
- AVERAGE DEAD IN % (Septoria tritici; [7]): 0%
- AVERAGE DEAD IN % (Septoria tritici; [8]): 0%
- AVERAGE DEAD IN % (Septoria tritici; [9]): 20%
- AVERAGE DEAD IN % (Septoria tritici; Epoxiconazole alone 0.0625 ppm AI): 50%
- AVERAGE DEAD IN % (Septoria tritici; Epoxiconazole alone 0.125 ppm AI): 70%
- AVERAGE DEAD IN % (Septoria tritici; [10]): 90%
- AVERAGE DEAD IN % (Septoria tritici; Epoxiconazole alone 0.5 ppm AI): 90%
- AVERAGE DEAD IN % (Septoria tritici; Epoxiconazole alone 1 ppm AI): 90%
- AVERAGE DEAD IN % (Septoria tritici; Epoxiconazole alone 2 ppm AI): 90%
- AVERAGE DEAD IN % (Botrvtis cinerea; [10]): 20%
- AVERAGE DEAD IN % (Botrvtis cinerea; Epoxiconazole alone 0.5 ppm AI): 90%
- AVERAGE DEAD IN % (Botrvtis cinerea; Epoxiconazole alone 1 ppm AI): 100%
- AVERAGE DEAD IN % (Botrvtis cinerea; Epoxiconazole alone 2 ppm AI): 100%
- AVERAGE DEAD IN % Epoxiconazole (Fusarium culmorum; 0.125 PPM AI): 20%
- AVERAGE DEAD IN % Epoxiconazole (Fusarium culmorum; 0.25 PPM AI): 20%
- AVERAGE DEAD IN % Epoxiconazole (Fusarium culmorum; 0.5 PPM AI): 20%
- AVERAGE DEAD IN % Epoxiconazole (Fusarium culmorum; 1 PPM AI): 20%
- AVERAGE DEAD IN % Epoxiconazole (Fusarium culmorum; 2 PPM AI): 20%
- AVERAGE DEAD IN % [2, 10]: 20%
- AVERAGE DEAD IN % ([2]; Epoxiconazole alone 0.5 ppm AI): 50%
- AVERAGE DEAD IN % ([2]; Epoxiconazole alone 1 ppm AI): 70%
- AVERAGE DEAD IN % ([2]; Epoxiconazole alone 2 ppm AI): 90%

SMILES: COC(=O)N(OC)c1ccccc1COc1ccn(-c2ccc(Cl)cc2)n1 [Pyraclostrobin]
- AVERAGE DEAD IN % [1, 11]: 90%
- AVERAGE DEAD IN % (Septoria tritici; [11]): 90%
- AVERAGE DEAD IN % (Botrvtis cinerea; Pyraclostrobin alone 0.125 ppm AI): 20%
- AVERAGE DEAD IN % (Botrvtis cinerea; Pyraclostrobin alone 0.25 ppm AI): 20%
- AVERAGE DEAD IN % (Botrvtis cinerea; [12]): 20%
- AVERAGE DEAD IN % (Botrvtis cinerea; Pyraclostrobin alone 1 ppm AI): 50%
- AVERAGE DEAD IN % (Botrvtis cinerea; Pyraclostrobin alone 2 ppm AI): 70%
- AVERAGE DEAD IN % (Fusarium culmorum; [12]): 20%
- AVERAGE DEAD IN % (Fusarium culmorum; Pyraclostrobin alone 1 ppm AI): 20%
- AVERAGE DEAD IN % (Fusarium culmorum; Pyraclostrobin alone 2 ppm AI): 20%
- AVERAGE DEAD IN % [2, 11]: 70%
- AVERAGE DEAD IN % ([2]; Pyraclostrobin alone 0.0078125 ppm AI): 90%
